# Laboratory results as given in ChEMBL document CHEMBL1821719, “2,7-disubstituted-pyrrolo[2,1-f][1,2,4]triazines: new variant of an old template and application to the discovery of anaplastic lymphoma kinase (ALK) inhibitors with in vivo antitumor activity” (J Med Chem, 2011).
# Columns and labels:
# [1] = target: Cytochrome P450 2D6 (Homo sapiens, UniProt P10635); test: Inhibition of CYP2D6; format: ADME
# [2] = target: T1, Cytochrome P450 1A2 (Homo sapiens, UniProt P05177); test: Inhibition of CYP1A2; format: ADME
# T1 sequence (P05177 whole entry): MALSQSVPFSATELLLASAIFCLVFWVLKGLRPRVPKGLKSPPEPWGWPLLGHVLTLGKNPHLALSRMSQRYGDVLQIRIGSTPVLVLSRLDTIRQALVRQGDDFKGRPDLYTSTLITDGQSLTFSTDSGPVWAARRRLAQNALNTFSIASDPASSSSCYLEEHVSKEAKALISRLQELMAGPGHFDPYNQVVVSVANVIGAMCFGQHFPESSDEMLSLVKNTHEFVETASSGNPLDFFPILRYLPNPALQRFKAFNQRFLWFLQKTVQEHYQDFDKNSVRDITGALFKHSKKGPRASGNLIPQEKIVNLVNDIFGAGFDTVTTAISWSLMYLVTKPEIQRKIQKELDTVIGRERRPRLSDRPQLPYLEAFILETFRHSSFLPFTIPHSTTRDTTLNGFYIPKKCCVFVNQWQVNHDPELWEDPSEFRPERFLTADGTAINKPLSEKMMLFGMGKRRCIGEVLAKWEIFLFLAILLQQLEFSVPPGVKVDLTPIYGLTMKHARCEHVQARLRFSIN
# [3] = target: Cytochrome P450 2C9 (Homo sapiens, UniProt P11712); test: Inhibition of CYP2C9; format: ADME
# [4] = Half-life in human liver microsomes; format: ADME, Microsome
# [5] = Half-life in mouse liver microsomes; format: ADME, Microsome
# [6] = Half-life in rat liver microsomes; format: ADME, Microsome
# [7] = target: Cytochrome P450 2C19 (Homo sapiens, UniProt P33261); test: Inhibition of CYP2C19; format: ADME
# [8] = target: ALK tyrosine kinase receptor (Homo sapiens, UniProt Q9UM73); test: Inhibition of human recombinant ALK assessed as phosphorylated product using PLC-gamma/GST substrate by modified ELISA method
# [9] = target: Insulin receptor (Homo sapiens, UniProt P06213); test: Inhibition of IR
# [10] = target: Cytochrome P450 3A4 (Homo sapiens, UniProt P08684); test: Inhibition of CYP3A4; format: ADME
# [11] = Half-life in iv dosed Sprague-Dawley rat; format: ADME, organism-based; details: in vivo
# [12] = Oral bioavailability in Sprague-Dawley rat; format: ADME, organism-based; details: in vivo
# [13] = Clearance in iv dosed Sprague-Dawley rat; format: ADME, organism-based; details: in vivo
# Chain of ALK tyrosine kinase receptor (Q9UM73 whole entry): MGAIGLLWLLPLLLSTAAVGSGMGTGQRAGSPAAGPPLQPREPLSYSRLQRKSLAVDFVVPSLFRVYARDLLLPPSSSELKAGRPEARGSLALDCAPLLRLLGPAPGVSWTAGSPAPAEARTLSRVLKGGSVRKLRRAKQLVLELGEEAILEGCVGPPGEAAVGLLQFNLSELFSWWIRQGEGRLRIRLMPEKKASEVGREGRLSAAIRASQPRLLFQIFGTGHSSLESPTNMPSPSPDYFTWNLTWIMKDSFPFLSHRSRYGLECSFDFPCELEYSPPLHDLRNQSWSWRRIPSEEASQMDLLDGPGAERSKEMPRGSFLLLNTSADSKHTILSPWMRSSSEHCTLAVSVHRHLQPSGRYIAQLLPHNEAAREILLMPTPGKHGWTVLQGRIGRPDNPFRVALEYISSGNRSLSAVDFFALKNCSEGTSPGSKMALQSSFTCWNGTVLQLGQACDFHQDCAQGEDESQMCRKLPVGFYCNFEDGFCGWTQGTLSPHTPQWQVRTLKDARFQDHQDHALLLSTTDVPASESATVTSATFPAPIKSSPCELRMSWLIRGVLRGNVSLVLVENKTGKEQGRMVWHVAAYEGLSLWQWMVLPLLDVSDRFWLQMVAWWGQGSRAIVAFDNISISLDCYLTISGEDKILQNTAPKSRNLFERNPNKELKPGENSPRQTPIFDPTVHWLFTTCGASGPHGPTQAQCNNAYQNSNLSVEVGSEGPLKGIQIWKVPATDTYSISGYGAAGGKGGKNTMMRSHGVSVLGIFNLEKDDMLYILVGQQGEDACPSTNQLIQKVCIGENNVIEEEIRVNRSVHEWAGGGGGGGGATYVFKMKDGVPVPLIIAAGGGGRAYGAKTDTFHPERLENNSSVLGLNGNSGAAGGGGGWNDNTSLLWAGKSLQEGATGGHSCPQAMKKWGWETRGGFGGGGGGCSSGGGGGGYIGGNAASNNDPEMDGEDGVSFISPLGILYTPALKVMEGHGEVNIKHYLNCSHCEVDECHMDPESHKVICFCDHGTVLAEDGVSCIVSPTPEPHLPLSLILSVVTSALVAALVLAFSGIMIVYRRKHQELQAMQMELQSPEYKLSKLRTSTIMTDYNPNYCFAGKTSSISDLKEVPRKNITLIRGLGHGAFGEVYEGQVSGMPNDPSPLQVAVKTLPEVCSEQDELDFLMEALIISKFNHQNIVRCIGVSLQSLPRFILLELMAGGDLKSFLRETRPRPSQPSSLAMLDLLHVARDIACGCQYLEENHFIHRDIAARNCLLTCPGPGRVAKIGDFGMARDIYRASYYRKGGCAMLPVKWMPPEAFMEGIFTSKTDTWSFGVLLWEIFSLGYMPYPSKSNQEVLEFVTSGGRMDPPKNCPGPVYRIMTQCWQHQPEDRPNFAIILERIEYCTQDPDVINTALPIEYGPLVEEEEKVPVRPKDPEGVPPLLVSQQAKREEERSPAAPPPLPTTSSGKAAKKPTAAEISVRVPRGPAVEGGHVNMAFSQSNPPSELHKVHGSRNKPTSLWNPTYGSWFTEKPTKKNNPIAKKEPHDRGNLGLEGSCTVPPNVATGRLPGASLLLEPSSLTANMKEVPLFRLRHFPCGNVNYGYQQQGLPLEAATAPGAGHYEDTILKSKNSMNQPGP
# Chain of Insulin receptor (P06213 28-758 limits assumed): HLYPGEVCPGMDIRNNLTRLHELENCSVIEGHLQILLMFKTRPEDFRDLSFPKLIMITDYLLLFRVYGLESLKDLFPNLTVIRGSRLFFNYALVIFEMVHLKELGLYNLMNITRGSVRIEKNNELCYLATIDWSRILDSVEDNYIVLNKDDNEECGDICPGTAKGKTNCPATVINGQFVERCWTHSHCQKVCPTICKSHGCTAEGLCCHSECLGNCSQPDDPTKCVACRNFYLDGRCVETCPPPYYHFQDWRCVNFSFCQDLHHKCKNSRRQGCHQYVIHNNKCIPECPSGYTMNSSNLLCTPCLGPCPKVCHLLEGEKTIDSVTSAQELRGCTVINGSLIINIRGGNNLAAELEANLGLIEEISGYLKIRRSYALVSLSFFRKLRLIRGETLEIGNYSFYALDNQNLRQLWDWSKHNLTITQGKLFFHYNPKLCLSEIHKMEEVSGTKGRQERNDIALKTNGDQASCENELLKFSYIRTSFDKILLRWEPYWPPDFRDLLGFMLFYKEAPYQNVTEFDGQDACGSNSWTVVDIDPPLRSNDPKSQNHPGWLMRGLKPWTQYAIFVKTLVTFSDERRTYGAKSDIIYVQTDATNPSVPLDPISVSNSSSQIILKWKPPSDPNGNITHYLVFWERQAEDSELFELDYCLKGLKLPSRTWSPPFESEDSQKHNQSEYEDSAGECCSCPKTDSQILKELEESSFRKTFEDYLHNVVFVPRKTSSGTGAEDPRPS
# Chain of Insulin receptor (P06213 763-1382 limits assumed): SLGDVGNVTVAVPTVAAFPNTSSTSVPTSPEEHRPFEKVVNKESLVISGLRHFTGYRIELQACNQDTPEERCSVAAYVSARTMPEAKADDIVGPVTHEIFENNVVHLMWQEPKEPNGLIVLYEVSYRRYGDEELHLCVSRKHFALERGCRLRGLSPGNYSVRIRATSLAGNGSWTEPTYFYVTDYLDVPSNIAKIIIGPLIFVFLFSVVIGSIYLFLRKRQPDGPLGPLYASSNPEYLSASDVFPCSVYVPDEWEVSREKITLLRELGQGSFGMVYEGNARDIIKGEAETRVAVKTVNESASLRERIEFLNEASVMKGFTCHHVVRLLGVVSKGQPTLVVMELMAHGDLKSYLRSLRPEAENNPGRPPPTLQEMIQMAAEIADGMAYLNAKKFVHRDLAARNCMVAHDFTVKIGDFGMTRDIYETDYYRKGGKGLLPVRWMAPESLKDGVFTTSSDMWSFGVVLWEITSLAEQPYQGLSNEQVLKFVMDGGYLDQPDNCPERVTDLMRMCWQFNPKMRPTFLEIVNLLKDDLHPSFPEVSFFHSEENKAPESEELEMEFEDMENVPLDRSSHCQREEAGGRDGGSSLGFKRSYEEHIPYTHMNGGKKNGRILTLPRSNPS
# Chain of Cytochrome P450 2C19 (P33261 whole entry): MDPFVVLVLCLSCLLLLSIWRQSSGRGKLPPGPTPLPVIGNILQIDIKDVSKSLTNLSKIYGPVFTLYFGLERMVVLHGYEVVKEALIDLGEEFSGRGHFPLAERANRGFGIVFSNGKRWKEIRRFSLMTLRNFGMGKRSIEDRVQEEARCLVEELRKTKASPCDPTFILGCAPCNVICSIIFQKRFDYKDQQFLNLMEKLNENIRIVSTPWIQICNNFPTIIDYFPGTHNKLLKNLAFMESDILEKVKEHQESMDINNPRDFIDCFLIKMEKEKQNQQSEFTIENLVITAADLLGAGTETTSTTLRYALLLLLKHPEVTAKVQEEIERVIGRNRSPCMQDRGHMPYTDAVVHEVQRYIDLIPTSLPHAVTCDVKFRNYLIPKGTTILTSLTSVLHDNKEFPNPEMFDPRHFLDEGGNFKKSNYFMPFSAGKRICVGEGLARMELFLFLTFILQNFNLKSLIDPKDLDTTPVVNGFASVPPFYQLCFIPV
# Chain of Cytochrome P450 2D6 (P10635 whole entry): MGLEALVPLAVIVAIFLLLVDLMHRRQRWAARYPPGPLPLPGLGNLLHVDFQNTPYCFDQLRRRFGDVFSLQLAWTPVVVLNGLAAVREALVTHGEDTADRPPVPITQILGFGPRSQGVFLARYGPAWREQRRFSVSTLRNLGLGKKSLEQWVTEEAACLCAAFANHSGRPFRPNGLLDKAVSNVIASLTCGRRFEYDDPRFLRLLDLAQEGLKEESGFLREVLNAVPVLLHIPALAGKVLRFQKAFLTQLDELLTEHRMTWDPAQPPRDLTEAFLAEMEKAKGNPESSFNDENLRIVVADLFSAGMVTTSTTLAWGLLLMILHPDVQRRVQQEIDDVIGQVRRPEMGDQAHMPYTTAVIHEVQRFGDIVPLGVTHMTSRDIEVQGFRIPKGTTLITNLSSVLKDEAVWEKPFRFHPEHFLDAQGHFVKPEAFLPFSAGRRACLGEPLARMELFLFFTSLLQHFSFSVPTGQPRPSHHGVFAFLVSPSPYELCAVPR
# Chain of Cytochrome P450 3A4 (P08684 whole entry): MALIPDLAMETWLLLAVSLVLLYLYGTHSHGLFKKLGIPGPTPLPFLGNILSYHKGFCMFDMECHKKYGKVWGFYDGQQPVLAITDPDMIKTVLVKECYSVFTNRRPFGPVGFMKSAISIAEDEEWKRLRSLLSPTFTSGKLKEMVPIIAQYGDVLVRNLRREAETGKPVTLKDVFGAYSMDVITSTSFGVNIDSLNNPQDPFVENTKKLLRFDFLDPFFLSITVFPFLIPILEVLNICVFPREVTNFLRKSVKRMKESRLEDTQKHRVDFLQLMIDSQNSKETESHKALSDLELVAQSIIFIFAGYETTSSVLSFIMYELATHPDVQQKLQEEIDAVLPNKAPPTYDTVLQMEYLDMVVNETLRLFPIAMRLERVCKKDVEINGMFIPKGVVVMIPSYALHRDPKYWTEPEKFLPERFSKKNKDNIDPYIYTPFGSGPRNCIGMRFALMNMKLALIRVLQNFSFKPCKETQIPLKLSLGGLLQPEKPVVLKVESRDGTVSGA
# Chain of Cytochrome P450 2C9 (P11712 whole entry): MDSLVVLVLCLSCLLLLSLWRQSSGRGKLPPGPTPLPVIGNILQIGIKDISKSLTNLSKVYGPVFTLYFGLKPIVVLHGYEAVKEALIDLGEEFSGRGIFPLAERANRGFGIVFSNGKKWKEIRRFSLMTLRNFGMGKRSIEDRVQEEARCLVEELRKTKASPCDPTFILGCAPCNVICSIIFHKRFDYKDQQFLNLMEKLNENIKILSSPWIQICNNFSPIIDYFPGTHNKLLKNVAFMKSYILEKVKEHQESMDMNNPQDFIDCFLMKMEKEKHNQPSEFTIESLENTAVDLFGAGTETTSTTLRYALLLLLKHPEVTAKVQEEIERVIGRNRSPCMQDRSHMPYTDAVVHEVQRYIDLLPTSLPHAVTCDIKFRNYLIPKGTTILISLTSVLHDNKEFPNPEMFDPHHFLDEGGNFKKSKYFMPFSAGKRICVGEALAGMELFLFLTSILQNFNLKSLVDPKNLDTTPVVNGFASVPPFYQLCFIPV
compound,measurement,setting,value
CN1CCN(c2ccc(Nc3ncc4ccc(-c5ccccc5N(C)S(C)(=O)=O)n4n3)cc2)CC1,IC50,[1],> 30000 nM
same,IC50,[2],> 30000 nM
same,IC50,[3],> 30000 nM
same,half-life,[4],40 min
same,half-life,[5],30 min
same,half-life,[6],21 min
same,IC50,[7],> 30000 nM
same,IC50,[8],7 nM
same,IC50,[9],366 nM
same,IC50,[10],14600 nM
COc1cc(Nc2ncc3ccc(-c4ccccc4)n3n2)cc(OC)c1OC,IC50,[8],212 nM
same,IC50,[9],295 nM
c1ccc(-c2ccc3cnc(Nc4ccc(N5CCOCC5)cc4)nn23)cc1,IC50,[8],> 2000 nM
same,IC50,[9],194 nM
CN1CCN(c2ccc(Nc3ncc4ccc(-c5ccccc5)n4n3)cc2)CC1,IC50,[8],48 nM
same,IC50,[9],35 nM
COCCN1CCc2ccc(Nc3ncc4ccc(-c5ccccc5)n4n3)cc2CC1,IC50,[8],38 nM
same,IC50,[9],19 nM
COc1ccccc1-c1ccc2cnc(Nc3ccc(N4CCN(C)CC4)cc3)nn12,IC50,[1],> 30000 nM
same,half-life,[11],30 min
same,IC50,[2],> 30000 nM
same,IC50,[3],> 30000 nM
same,half-life,[4],40 min
same,half-life,[5],8 min
same,half-life,[6],14 min
same,bioavailability,[12],4%
same,IC50,[7],> 30000 nM
same,IC50,[8],20 nM
same,clearance,[13],60 mL/min/kg
same,IC50,[9],123 nM
same,IC50,[10],9400 nM
CN1CCN(c2ccc(Nc3ncc4ccc(-c5ccccc5C(N)=O)n4n3)cc2)CC1,IC50,[8],726 nM
same,IC50,[9],326 nM
CN1CCN(c2ccc(Nc3ncc4ccc(-c5ccccc5S(C)(=O)=O)n4n3)cc2)CC1,IC50,[8],883 nM
same,IC50,[9],> 2000 nM
